Values after ≈ are worked out from the molar mass of the structure shown. Like-named read-outs stand apart in the source and are kept apart here. Where a SMILES comes first, the peptide text is derived from it.
Experiments:
[1] = in vitro; conditions: for half-life: simulated gi fluid
Protocol: Assay incubation conditions included […] simulated gastric fluid (SGF, USP 39 Test Solution; 2 g/L NaCl, 7 mL/L glacial HCl, pH 1.4) containing 1.75 mg/mL Pepsin (3200-4500 U/mg) mixed with 7.5 μL of 10 mg/mL variant (or positive control, NH2-Met-Arg-Phe-Ala-OH, MRFA, CAS#67368-29-0) for a final concentration of 300 μg/ml variant in a microfuge tube. Samples were incubated at 37° C. and analyzed using HPLC or LC-MS for loss of substrate. The percent remaining, elimination rate constant (Ke), and in vitro protein half-lives were calculated. A control of SGF without enzyme was also run and analyzed in the same manner for each variant.

[2] = test system: Clostridium difficile UNT103-1; assay: Non-cannulated Syrian hamster C. difficile infection model, oral gavage; type: in vivo, Golden Syrian hamsters; conditions: for Percent Survival at Day-22: oral gavage TID Days 2-6, vancomycin 20 mg/kg once a day; for Toxin A level at Day-22 / Mean LOG10 CFU/mL of feces homogenates (cecal spore counts) at Day-22 / Toxin B level at Day-22: oral gavage; for Toxin A level at Day-22: first value of A/B cell; for Toxin A level at Day-22 / Toxin B level at Day-22: limit of detection 0.8; for Mean LOG10 CFU/mL of feces homogenates (cecal spore counts) at Day-22: limit of detection 2.40; for Toxin B level at Day-22: second value of A/B cell
Protocol: Following the recovery phase, male Golden Syrian hamsters were inoculated with Clostridium difficile UNT103-1 (VA11, non epidemic (cdtB-, REA group J) Curtis Donskey, Cleveland VA Hospital, Cleveland, Ohio). On Day 1, at 24 hrs after infection, all animals received a single subcutaneous injection of clindamycin (10 mg/kg). Test article formulations were administered three times per day (TID), starting on Day 2 at 18 hours after Clindamycin injection, for 5 consecutive days (Days 2 through 6), and followed until Day 22 to assess recurrence. Vancomycin (positive control) was administered once a day at 20 mg/kg on Days 2 through 6. Cecal spore counts and Toxins A and B were determined as described above

[3] = simulated gi fluid
[4] = test system: VRE Enterococcus faecalis; conditions: VRE
[5] = test system: VRE Enterococcus faecium
[6] = test system: Clostridium scindens (ATCC 35704)
[7] = test system: Lactobacillus acidophilus (CCUG 4356)
[8] = test system: Peptostreptococcus anaerobius (ATCC 27337)
[9] = test system: Eggerthella lenta (ATCC 27337)
[10] = test system: Heliobacter pylori
[11] = FaSSIF + 1% pancreatin + 3 μg/ml trypsin + 3 μg/ml chymotrypsin half-life

| SMILES | half-life [1] | Percent Survival at Day-22 [2] | Toxin A level at Day-22 [2] | Mean LOG10 CFU/mL of feces homogenates (cecal spore counts) at Day-22 [2] | Toxin B level at Day-22 [2] | half-life [3, 11] | half-life ([3]; FaSSIF only half-life) | MIC VRE ATCC 51575 [4] | MIC VRE CCUG 47775 [4] | MIC VRE ATCC 700221 [5] | MIC C. scindens [6] | MIC L. acidophilus [7] | MIC P. anaerobius [8] | MIC E. lenta [9] | MIC to H. Pylori without EDTA [10] | MIC to H. Pylori with 0.05M EDTA [10] | half-life at 300 μg/ml ([1]; simulated gastric fluid without enzyme, pH 1.4) |
| --- | --- | --- | --- | --- | --- | --- | --- | --- | --- | --- | --- | --- | --- | --- | --- | --- | --- |
| C=C1NC(=O)[C@H](Cc2c[nH]c3ccccc23)NC(=O)[C@H](NC(=O)[C@H](CCCCN)NC(=O)[C@@H](N)[C@@H](C)CC)CSC[C@@H](C(=O)N[C@H]2C(=O)N3CCC[C@H]3C(=O)NCC(=O)N[C@H](C(=O)N[C@@H](C)C(=O)N[C@@H](C)C(=O)NC(=CC)C(=O)NCC(=O)N[C@@H]3CSC[C@@H]4NC(=O)[C@H](Cc5ccc(O)cc5)NC(=O)[C@@H](CS/C=C\NC4=O)NC(=O)[C@H](CC(N)=O)NC(=O)[C@H](Cc4ccccc4)NC3=O)CS[C@H]2C)NC(=O)[C@H](CC(C)C)NC1=O [F1I R13A] | > 24 h | 50% | 147 ng/mL | 4.67 LOG10 CFU/mL | 205.5 ng/mL | > 12 h | > 12 h | 16 µg/mL (≈ 7.46 µM) | 16 µg/mL (≈ 7.46 µM) | 8 µg/mL (≈ 3.73 µM) | 4 µg/mL (≈ 1.86 µM) | 0.5 µg/mL (≈ 0.233 µM) | 1 µg/mL (≈ 0.466 µM) | 2 µg/mL (≈ 0.932 µM) | 8 µg/mL (≈ 3.73 µM) | 8 µg/mL | – |
| C=C1NC(=O)[C@H](Cc2c[nH]c3ccccc23)NC(=O)[C@H](NC(=O)[C@H](CCCCN)NC(=O)[C@@H](N)[C@@H](C)CC)CSC[C@@H](C(=O)N[C@H]2C(=O)N3CCC[C@H]3C(=O)NCC(=O)N[C@H](C(=O)N[C@@H](C)C(=O)N[C@@H](CC(=O)O)C(=O)NC(=CC)C(=O)NCC(=O)N[C@@H]3CSC[C@@H]4NC(=O)[C@H](Cc5ccc(O)cc5)NC(=O)[C@@H](CS/C=C\NC4=O)NC(=O)[C@H](CC(N)=O)NC(=O)[C@H](Cc4ccccc4)NC3=O)CS[C@H]2C)NC(=O)[C@H](CC(C)C)NC1=O [F1I R13D] | > 24 h | 50% | 648.5 ng/mL | 4.8 LOG10 CFU/mL | 216.6 ng/mL | > 12 h | > 12 h | 32 µg/mL (≈ 14.6 µM) | 32 µg/mL (≈ 14.6 µM) | 32 µg/mL (≈ 14.6 µM) | 8 µg/mL (≈ 3.65 µM) | 2 µg/mL (≈ 0.913 µM) | 1 µg/mL (≈ 0.457 µM) | 2 µg/mL (≈ 0.913 µM) | 8 µg/mL (≈ 3.65 µM) | 8 µg/mL | – |
| C=C1NC(=O)[C@H](Cc2c[nH]c3ccccc23)NC(=O)[C@H](NC(=O)[C@H](CCCCN)NC(=O)[C@@H](N)CC(C)C)CSC[C@@H](C(=O)N[C@H]2C(=O)N3CCC[C@H]3C(=O)NCC(=O)N[C@H](C(=O)N[C@@H](C)C(=O)N[C@@H](CC(=O)O)C(=O)NC(=CC)C(=O)NCC(=O)N[C@@H]3CSC[C@@H]4NC(=O)[C@H](Cc5ccc(O)cc5)NC(=O)[C@@H](CS/C=C\NC4=O)NC(=O)[C@H](CC(N)=O)NC(=O)[C@H](Cc4ccccc4)NC3=O)CS[C@H]2C)NC(=O)[C@H](CC(C)C)NC1=O [F1L R13D] | > 24 h | – | – | – | – | > 12 h | > 12 h | 64 µg/mL (≈ 29.2 µM) | 32 µg/mL (≈ 14.6 µM) | 32 µg/mL (≈ 14.6 µM) | 8 µg/mL (≈ 3.65 µM) | 8 µg/mL (≈ 3.65 µM) | 2 µg/mL (≈ 0.913 µM) | 1 µg/mL (≈ 0.457 µM) | 8 µg/mL (≈ 3.65 µM) | 4 µg/mL | – |
| CSCC[C@H](N)C(=O)N[C@@H](CCCNC(=N)N)C(=O)N[C@@H](Cc1ccccc1)C(=O)N[C@@H](C)C(=O)O [Positive Control, NH2-Met-Arg-Phe-Ala-OH, reference compound] (H-MRFA-OH) | – | – | – | – | – | – | – | – | – | – | – | – | – | – | – | – | > 24 h |

— patent US20190315814A1, “LANTIBIOTIC VARIANTS AND USES THEREOF” (priority 2016, published 2019)
